The record followed here is patent publication US20100298557A1, “PYRAZOLOPYRIMIDINE COMPOUND” (Taisho Pharmaceutical Co., Ltd, priority 2006, published 2010).

The structures appear in SMILES notation. Bounds are passed on as bounds.

Assay [1] concerns the target T1, Syk (Homo sapiens, UniProt P43405).
T1 construct: purchased Wako Pure Chemical Industries
Description: Syk inhibition test. The class given is biochemical. The following applies: poly(L-glu-L-tyr) substrate, ATP 5 μM, [γ-33P]ATP, 30 minutes room temperature; read-out: Syk inhibitory activity IC50. On the procedure: 10 ng/10 μl/well of a Syk (Wako Pure Chemical Industries) solution, 15 μl of a poly(L-glu-L-tyr) substrate peptide solution (Sigma, final concentration 5 μM), 20 μl of an ATP mixture (ATP: Oriental Yeast, final concentration 5 μM, [γ-33P]ATP: GE Healthcare Biosciences, 0.1 μCi/well) and 5 μl of a test substance solution were added to a 96-well Corning reaction plate, followed by incubation at room temperature for 30 minutes. An assay buffer containing 50 mM Tris pH 7.5, 10 mM MgCl2, 0.1 mM Na3VO4, 1 mM DTT, 0.01% CHAPS and 100 μg/ml BSA was used. The test substance solution was made by dissolving the test substance in DMSO at each concentration. The final concentration of DMSO was 1%. The reaction was terminated by adding 100 μl of a 120 mM phosphoric acid solution as a reaction terminator. Then, the total reaction solution was transferred to MultiScreen (Millipore) and washed with 200 μl of 100 mM phosphoric acid four times.
After drying, 20 μl of MicroScint-O (PerkinElmer) was added and the radioactivity was measured by TopCount (PerkinElmer). The ratio of the radioactivity when the test substance was added to the radioactivity when the test substance was not added was determined. The IC50 value was calculated from the inhibition rate at each concentration and used as an index of inhibitory activity.

In assay [2] the test system is PCA reaction. Description: Rat passive cutaneous anaphylaxis (PCA) test. Format: in vivo. The following applies: male Wistar rats, oral administration four hours prior to antigen challenge, blue spot area. On the procedure:
The back of seven-week-old male Wistar rats was clipped under light anesthesia with ether, and the rats were sensitized by intradermal administration of 100 μl of 25 ng/ml anti-dinitrophenyl-IgE (DNP-IgE) (Sigma) to the back. 24 hours after the sensitization, 1 ml of a 0.5% Evans blue solution containing 1 mg of DNP-BSA was intravenously administered. Further, 30 minutes after the administration, the rats were sacrificed and the back skin was collected. The test compound, or only a vehicle as a control, was orally administered four hours prior to the antigen challenge. The length and breadth of the skin blue spot were calipered, and the area of the blue spot was calculated as length×breadth. The PCA inhibition rate by the test substance was calculated by the following formula. In the formula, • C represents: a blue spot area by PCA reaction when only the vehicle was administered, and • X represents: a blue spot area by PCA reaction when the test compound was administered. Inhibition rate (%)=(C−X)×100/C

For assay [3], the target named is T2, Abl (Homo sapiens, UniProt P00519).
T2 construct: purchased Wako Pure Chemical Industries
T2 sequence (P00519 whole entry, species assumed): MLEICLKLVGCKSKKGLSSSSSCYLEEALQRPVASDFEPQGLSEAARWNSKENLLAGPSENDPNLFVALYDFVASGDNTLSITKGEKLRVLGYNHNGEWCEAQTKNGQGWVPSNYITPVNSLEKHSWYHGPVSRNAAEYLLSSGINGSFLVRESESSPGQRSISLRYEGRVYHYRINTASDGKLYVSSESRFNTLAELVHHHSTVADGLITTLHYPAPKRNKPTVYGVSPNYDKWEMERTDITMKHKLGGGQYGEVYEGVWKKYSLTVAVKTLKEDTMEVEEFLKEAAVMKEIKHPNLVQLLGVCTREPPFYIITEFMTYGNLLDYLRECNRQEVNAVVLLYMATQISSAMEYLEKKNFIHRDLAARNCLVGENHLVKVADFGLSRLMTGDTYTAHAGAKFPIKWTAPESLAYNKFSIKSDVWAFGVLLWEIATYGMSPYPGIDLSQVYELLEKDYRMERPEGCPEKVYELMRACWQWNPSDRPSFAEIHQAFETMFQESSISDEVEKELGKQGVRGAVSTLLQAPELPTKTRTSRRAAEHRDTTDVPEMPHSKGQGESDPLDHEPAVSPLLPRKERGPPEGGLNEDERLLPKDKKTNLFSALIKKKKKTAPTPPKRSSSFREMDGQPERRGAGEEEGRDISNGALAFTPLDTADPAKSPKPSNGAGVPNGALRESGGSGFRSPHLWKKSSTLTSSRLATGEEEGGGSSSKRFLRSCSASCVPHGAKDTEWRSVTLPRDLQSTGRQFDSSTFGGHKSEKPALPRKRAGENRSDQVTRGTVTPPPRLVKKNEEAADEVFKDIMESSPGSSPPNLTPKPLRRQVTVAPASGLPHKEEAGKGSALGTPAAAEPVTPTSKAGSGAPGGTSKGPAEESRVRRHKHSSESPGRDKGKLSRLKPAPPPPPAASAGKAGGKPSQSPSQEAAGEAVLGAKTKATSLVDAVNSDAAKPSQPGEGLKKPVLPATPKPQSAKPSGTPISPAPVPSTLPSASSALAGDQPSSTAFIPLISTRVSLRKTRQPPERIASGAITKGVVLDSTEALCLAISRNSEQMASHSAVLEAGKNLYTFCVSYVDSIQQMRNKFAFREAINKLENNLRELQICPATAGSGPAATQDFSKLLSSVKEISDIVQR
Description: Abl inhibition test. The class given is biochemical. Conditions: Abltide substrate, ATP 6 μM, [γ-33P]ATP, 40 minutes room temperature; read-out: Abl inhibitory activity IC50. On the procedure:
5 ng/5 μl/well of an Abl (Wako Pure Chemical Industries) solution, 30 μl of an Abltide substrate peptide solution (Wako Pure Chemical Industries; final concentration 5 μM) and 5 μl of a test substance solution were added to a 96-well plate (Corning), followed by incubation at room temperature for 15 minutes. Then, 10 μl of an ATP mixture (ATP: Oriental Yeast, final concentration 6 μM, [γ-33P]ATP: GE Healthcare Biosciences, 0.06 μCi/well, MgAcetate: Cosmo Bio, final concentration 10 mM) was added, followed by incubation at room temperature for 40 minutes. The Abl solution was prepared using a kinase buffer (20 mM MOPS pH 7.0, 1 mM EDTA, 0.1% β-mercaptoethanol, 0.01% Brij-35, 5% glycerol, 1 mg/ml BSA). The substrate peptide solution and the ATP mixture were prepared using 8 mM MOPS pH 7.0 and 0.2 mM
EDTA. The test substance solution was made by dissolving the test substance in DMSO at each concentration. The final concentration of DMSO was 1%. The reaction was terminated by adding 100 μl of a 100 mM phosphoric acid solution as a reaction terminator. Then, the total reaction solution was transferred to a 96-well MultiScreen plate (Millipore) and washed with 200 μl of 100 mM phosphoric acid three times. After drying, 20 μl of MicroScint-O (PerkinElmer) was added and the radioactivity was measured by TopCount (PerkinElmer). After subtracting the radioactivity in the well to which the Abltide substrate peptide was not added from each radioactivity, the ratio of the radioactivity when the test substance was added to the radioactivity when the test substance was not added was determined. The IC50 value was calculated from the inhibition rate at each concentration and used as an index of inhibitory activity.

In assay [4] the test system is Human mast cell line LAD cells. Put plainly: Degranulation test using human mast cell line LAD cells. Format: cell-based. Conditions: IgE-sensitized LAD cells, anti-human IgE stimulation, β-hexosaminidase release, read-out: degranulation inhibitory activity IC50. The protocol: Human mast cell line LAD cells were sensitized with human IgE (Cosmo Bio; final concentration 1 μg/ml) overnight. The cells were harvested, and then washed with PBS (Invitrogen) and washed again with Tyrode's buffer solution (Sigma) containing 0.1% BSA (Sigma). The cells were seeded into a 96-well plate at 10^5 cells/well and then the compound (0.1% final concentration DMSO solution) was added, followed by incubation at 37° C. for 15 minutes. Rabbit anti-human IgE (Dako Japan; final concentration 10 μg/ml) or control Ig (Dako Japan; final concentration 10 μg/ml) was added, followed by incubation at 37° C. for 30 minutes. The supernatant was recovered and p-nitrophenyl-2-acetamido-2-deoxy-β-D-glucopyranoside (Sigma; final concentration 4 mM), a substrate of β-hexosaminidase which is an index of degranulation, was added, followed by incubation at 37° C. for 45 minutes. Glycine (Wako; final concentration 0.2 M, pH 10.4) was added and the reaction was terminated. Then, the absorbance at 405 nm was measured.
The inhibition rate (%) was calculated as (anti-IgE antibody degranulation rate—compound-added group degranulation rate)/(anti-IgE antibody degranulation rate—control antibody degranulation rate)×100. The IC50 value was calculated from the inhibition rate at each concentration and used as an index of inhibitory activity.

The test system of assay [5] is collagen-induced arthritis. Put plainly: Mouse collagen-induced arthritis (CIA) test. Format: in vivo. Conditions: male DBA/1 mice, oral administration for 42 consecutive days, arthritis score. On the procedure:
Seven-week-old male DBA/1 mice were sensitized by intradermal administration of bovine type II collagen/complete Freund's adjuvant emulsion (150 μg/0.1 ml/mouse) to the tail head. 21 days after the primary sensitization, the mice were similarly boosted by intradermal administration of bovine type II collagen/complete Freund's adjuvant emulsion (100 μg/0.1 ml/mouse) to the tail head. After the booster, the degree of arthritis was scored by observation for each extremity twice a week on the following scale. • 0: No arthritis • 1: Edema in one finger joint • 2: Edema in two or more finger joints or instep • 3: Edema in tarsus or ankle • 4: Severe edema or joint deformation Oral administration of the test compound, or only a vehicle as a control, was started 30 minutes prior to the booster, and administration was carried out for 42 consecutive days thereafter. For each day passed, the total score for the extremities was provided as an arthritis score for one individual (0 to 16), and the arthritis onset inhibitory effect was evaluated as an average value for eight cases using the vehicle-administered group as a control group.

The term IC50 denotes the concentration needed to halve the response being measured.

On to `CS(=O)(=O)c1n[nH]c2nc(Nc3ccc(N4CCOCC4)cc3)nc(NC3CC3)c12` [Compound 6, N^4-Cyclopropyl-3-(methylsulfonyl)-N^6-(4-morpholin-4-ylphenyl)-1H-pyrazolo[3,4-d]pyrimidine-4,6-diamine], for which the IC50 in assay [1] is 160 nM; in assay [3], ≤ 50 nM. In assay [2], the “inhibition of PCA reaction” value is given as “excellently inhibited PCA reaction”.
Take `CS(=O)(=O)c1n[nH]c2nc(Nc3ccc(N4CCOCC4)cc3)nc(NC3CC3)c12` [Compound 7]: in assay [4], the IC50 is 24 nM. In addition, in assay [5], the “inhibition of the onset of arthritis in the CIA model” value is recorded as “excellently inhibited the onset of arthritis”.
With `CN1CCN(c2ccc(Nc3nc(NC4CC4)c4c(S(C)(=O)=O)n[nH]c4n3)cc2)CC1` [Compound 131, N^4-Cyclopropyl-N^6-[4-(4-methylpiperazin-1-yl)phenyl]-3-(methylsulfonyl)-1H-pyrazolo[3,4-d]pyrimidine-4,6-diamine], the IC50 in assay [1] was ≤ 200 nM; in assay [4], ≤ 100 nM; in assay [3], ≤ 10 nM.
On to `CSc1n[nH]c2nc(Nc3ccc(N4CCOCC4)cc3)nc(NCCCCN)c12` [Compound 102], for which the IC50 in assay [1] is ≤ 200 nM; in assay [4], ≤ 100 nM; in assay [3], ≤ 50 nM.
The matching figures for `CS(=O)(=O)c1n[nH]c2nc(Nc3ccc(N4CCNCC4)cc3)nc(NC3CC3)c12` [Compound 74]: ≤ 200 nM, ≤ 100 nM and ≤ 10 nM.
As for `CS(=O)(=O)c1n[nH]c2nc(Nc3ccc(N4CCS(=O)(=O)CC4)cc3)nc(NC3CC3)c12` [Compound 134], the half-maximal inhibitory concentration (IC50) in assay [1] is ≤ 200 nM; in assay [4], ≤ 100 nM; in assay [3], ≤ 10 nM.
The matching figures for `CSc1n[nH]c2nc(Nc3ccc(N4CCOCC4)cc3)nc(N[C@H]3CC[C@@H](N)CC3)c12` [Compound 112]: 20 nM, 19 nM and ≤ 10 nM.
